Assay results reported in ChEMBL document CHEMBL1201862, “PubChem BioAssay data set” (2004).
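Following 48 hours of exposure in 96-well plates, responses at five concentrations were used to interpolate endpoints linearly. The concentration for 50% growth inhibition is given as GI50.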 Activity calls are given as the source filed them. Rule as the data show it: active = GI50 up to about 1.1 µM and inactive = higher.

Tests used:
Experiment in all cases: NCI anticancer screen, dose series, 48 h
OVCAR-8 = tested on: OVCAR-8
SF-268 = tested on: SF-268
UO-31 = tested on: UO-31
NCI-H23 = tested on: NCI-H23
HCC 2998 = tested on: HCC 2998
LXFL 529 = tested on: LXFL 529
LOX IMVI = tested on: LOX IMVI
RXF 393 = tested on: RXF 393
TK-10 = tested on: TK-10
ACHN = tested on: ACHN
KM-20L2 = tested on: KM-20L2
HCT-15 = tested on: HCT-15
SN12C = tested on: SN12C
U-251 = tested on: U-251
HT-29 = tested on: HT-29
SK-MEL-5 = tested on: SK-MEL-5
SW-620 = tested on: SW-620
OVCAR-5 = tested on: OVCAR-5
SK-OV-3 = tested on: SK-OV-3
NCI-H522 = tested on: NCI-H522
HOP-62 = tested on: HOP-62
EKVX = tested on: EKVX
NCI-H226 = tested on: NCI-H226
SNB-75 = tested on: SNB-75
A498 = tested on: A498
COLO 205 = tested on: COLO 205
HOP-18 = tested on: HOP-18
KM12 = tested on: KM12
DMS-273 = tested on: DMS-273
OVCAR-4 = tested on: OVCAR-4
SK-MEL-2 = tested on: SK-MEL-2
HL-60 = tested on: HL-60
DMS-114 = tested on: DMS-114
UACC-62 = tested on: UACC-62
M14 = tested on: M14
SF-295 = tested on: SF-295
A549 = tested on: A549
CCRF-CEM = tested on: CCRF-CEM
IGROV-1 = tested on: IGROV-1
CAKI-1 = tested on: CAKI-1
NCI-H460 = tested on: NCI-H460
786-0 = tested on: 786-0
M19-MEL = tested on: M19-MEL
K562 = tested on: K562
UACC-257 = tested on: UACC-257
Malme-3M = tested on: Malme-3M
XF498 = tested on: XF498
DLD-1 = tested on: DLD-1
RPMI-8226 = tested on: RPMI-8226
SF-539 = tested on: SF-539
MOLT-4 = tested on: MOLT-4
SK-MEL-28 = tested on: SK-MEL-28
HCT-116 = tested on: HCT-116
SNB-78 = tested on: SNB-78
SNB-19 = tested on: SNB-19
HOP-92 = tested on: HOP-92
OVCAR-3 = tested on: OVCAR-3
SR = tested on: SR

Measured: GI50

CCCCCCCCCC1CC(=O)OC23CCCC(=O)C12O3 (configuration not stated)
inactive: OVCAR-8 52.1 µM | SF-268 > 100 µM | UO-31 > 100 µM | NCI-H23 > 100 µM | HCC 2998 56.8 µM | LXFL 529 > 100 µM | LOX IMVI 70.5 µM | RXF 393 > 100 µM | TK-10 > 100 µM | ACHN > 100 µM | KM-20L2 > 100 µM | SN12C > 100 µM | U-251 97.1 µM | HT-29 > 100 µM | SK-MEL-5 74.5 µM | SW-620 > 100 µM | OVCAR-5 > 100 µM | SK-OV-3 > 100 µM | NCI-H522 94.6 µM | HOP-62 > 100 µM | EKVX > 100 µM | NCI-H226 > 100 µM | SNB-75 > 100 µM | A498 71.9 µM | COLO 205 > 100 µM | HOP-18 62.5 µM | KM12 82.2 µM | DMS-273 > 100 µM | OVCAR-4 > 100 µM | SK-MEL-2 > 100 µM | HL-60 26.7 µM | DMS-114 71.6 µM | UACC-62 80 µM | M14 > 100 µM | SF-295 > 100 µM | A549 > 100 µM | CCRF-CEM > 100 µM | IGROV-1 > 100 µM | CAKI-1 > 100 µM | NCI-H460 > 100 µM | 786-0 > 100 µM | M19-MEL > 100 µM | K562 55.1 µM | UACC-257 > 100 µM | Malme-3M > 100 µM | XF498 > 100 µM | DLD-1 98.6 µM | RPMI-8226 > 100 µM | SF-539 > 100 µM | MOLT-4 26.7 µM | SK-MEL-28 > 100 µM | HCT-116 > 100 µM | SNB-78 60.8 µM | SNB-19 > 100 µM | HOP-92 > 100 µM | OVCAR-3 > 100 µM
84.9 µM: HCT-15

CC(=O)OC1COC(N2C(=O)/C(=N\NC(N)=S)c3cc(Br)ccc32)C(OC(C)=O)C1OC(C)=O (configuration not stated)
inactive: OVCAR-8 49.1 µM | SF-268 38.5 µM | NCI-H23 67.9 µM | HCC 2998 > 100 µM | LXFL 529 25.5 µM | LOX IMVI 38.9 µM | RXF 393 63.5 µM | TK-10 > 100 µM | ACHN 60.3 µM | KM-20L2 > 100 µM | SN12C > 100 µM | U-251 53.5 µM | HT-29 > 100 µM | SK-MEL-5 85.9 µM | SR 19.5 µM | SW-620 77.8 µM | OVCAR-5 > 100 µM | SK-OV-3 > 100 µM | NCI-H522 > 100 µM | HOP-62 98.6 µM | EKVX 56.1 µM | NCI-H226 > 100 µM | COLO 205 38.1 µM | HOP-18 > 100 µM | KM12 39.4 µM | DMS-273 38.5 µM | OVCAR-4 42.6 µM | SK-MEL-2 > 100 µM | HL-60 25.6 µM | DMS-114 19.9 µM | UACC-62 35.6 µM | M14 > 100 µM | SF-295 45.3 µM | A549 43.3 µM | CCRF-CEM 5.77 µM | IGROV-1 > 100 µM | CAKI-1 > 100 µM | NCI-H460 23.8 µM | 786-0 > 100 µM | M19-MEL 53.5 µM | K562 48 µM | UACC-257 > 100 µM | Malme-3M 32.7 µM | XF498 37.1 µM | DLD-1 42.2 µM | RPMI-8226 17.6 µM | SF-539 43.5 µM | MOLT-4 39.3 µM | SK-MEL-28 25.4 µM | HCT-116 27.2 µM | SNB-78 53.5 µM | SNB-19 > 100 µM | HOP-92 > 100 µM | OVCAR-3 51.5 µM
61.9 µM: HCT-15
